In ChEMBL document CHEMBL5291721, “A preclinical secondary pharmacology resource illuminates target-adverse drug reaction associations of marketed drugs” (Nat Commun, 2023):
Where a SMILES comes first, the peptide text is derived from it.

Assays:
[1] = target: Delta-type opioid receptor (Homo sapiens, UniProt P41143)
[2] = target: T1, Equilibrative nucleoside transporter 1 (Homo sapiens, UniProt Q99808)
T1 sequence (Q99808 whole entry): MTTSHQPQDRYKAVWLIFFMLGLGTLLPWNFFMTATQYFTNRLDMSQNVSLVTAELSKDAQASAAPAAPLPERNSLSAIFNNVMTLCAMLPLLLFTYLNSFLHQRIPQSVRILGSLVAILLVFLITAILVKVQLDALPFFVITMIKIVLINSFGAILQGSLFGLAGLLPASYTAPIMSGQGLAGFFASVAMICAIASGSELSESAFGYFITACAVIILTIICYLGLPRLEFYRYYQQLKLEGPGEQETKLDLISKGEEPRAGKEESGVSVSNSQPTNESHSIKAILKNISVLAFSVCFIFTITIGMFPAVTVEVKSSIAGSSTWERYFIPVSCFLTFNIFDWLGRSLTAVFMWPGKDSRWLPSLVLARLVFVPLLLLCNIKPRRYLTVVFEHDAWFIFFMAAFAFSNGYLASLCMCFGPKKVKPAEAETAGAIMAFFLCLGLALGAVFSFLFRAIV

[3] = target: T2, Progesterone receptor (Homo sapiens, UniProt P06401); type: functional
T2 sequence (P06401 whole entry): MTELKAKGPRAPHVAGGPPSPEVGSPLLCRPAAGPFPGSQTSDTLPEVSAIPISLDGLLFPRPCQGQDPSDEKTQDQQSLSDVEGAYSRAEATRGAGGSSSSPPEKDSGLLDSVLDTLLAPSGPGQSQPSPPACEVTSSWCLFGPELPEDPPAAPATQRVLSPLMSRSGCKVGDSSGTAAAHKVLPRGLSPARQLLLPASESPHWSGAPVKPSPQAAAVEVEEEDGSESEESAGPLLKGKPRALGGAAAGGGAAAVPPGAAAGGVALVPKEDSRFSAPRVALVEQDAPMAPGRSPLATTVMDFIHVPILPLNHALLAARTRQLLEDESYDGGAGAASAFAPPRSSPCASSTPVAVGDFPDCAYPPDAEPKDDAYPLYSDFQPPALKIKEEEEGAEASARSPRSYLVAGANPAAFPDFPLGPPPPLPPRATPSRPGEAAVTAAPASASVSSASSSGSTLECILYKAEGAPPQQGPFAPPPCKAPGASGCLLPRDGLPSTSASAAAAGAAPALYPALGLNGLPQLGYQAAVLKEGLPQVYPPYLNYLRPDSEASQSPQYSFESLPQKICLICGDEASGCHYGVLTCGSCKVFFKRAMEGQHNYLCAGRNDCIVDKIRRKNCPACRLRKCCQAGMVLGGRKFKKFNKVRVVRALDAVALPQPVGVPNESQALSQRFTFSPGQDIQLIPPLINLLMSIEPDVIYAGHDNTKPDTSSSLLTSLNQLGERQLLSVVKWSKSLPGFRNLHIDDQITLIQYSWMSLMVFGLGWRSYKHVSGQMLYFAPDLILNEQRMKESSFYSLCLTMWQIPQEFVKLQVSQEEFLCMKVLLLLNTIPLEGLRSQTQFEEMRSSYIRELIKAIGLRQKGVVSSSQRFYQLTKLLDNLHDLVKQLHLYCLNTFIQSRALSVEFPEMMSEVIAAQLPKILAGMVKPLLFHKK

[4] = target: Beta-1 adrenergic receptor (Homo sapiens, UniProt P08588); type: functional
[5] = target: 5-hydroxytryptamine receptor 2A (Homo sapiens, UniProt P28223); type: functional, cell-based
[6] = target: T3, Muscarinic acetylcholine receptor M2 (Homo sapiens, UniProt P08172); type: functional, cell-based
T3 sequence (P08172 whole entry): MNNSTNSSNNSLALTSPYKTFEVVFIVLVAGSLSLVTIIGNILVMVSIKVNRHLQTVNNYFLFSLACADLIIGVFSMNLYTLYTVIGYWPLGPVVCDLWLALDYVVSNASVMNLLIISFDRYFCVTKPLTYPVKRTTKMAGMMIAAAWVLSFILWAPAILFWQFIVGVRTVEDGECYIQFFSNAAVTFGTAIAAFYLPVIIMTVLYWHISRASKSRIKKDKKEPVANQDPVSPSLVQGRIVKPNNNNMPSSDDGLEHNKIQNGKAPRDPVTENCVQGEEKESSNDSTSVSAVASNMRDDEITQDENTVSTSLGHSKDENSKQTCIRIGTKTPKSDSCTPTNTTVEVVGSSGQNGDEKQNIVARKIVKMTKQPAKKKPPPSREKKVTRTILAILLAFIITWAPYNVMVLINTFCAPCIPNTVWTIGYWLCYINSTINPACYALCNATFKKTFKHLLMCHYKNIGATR

[7] = target: T4, Type-1 angiotensin II receptor (Homo sapiens, UniProt P30556)
T4 sequence (P30556 whole entry): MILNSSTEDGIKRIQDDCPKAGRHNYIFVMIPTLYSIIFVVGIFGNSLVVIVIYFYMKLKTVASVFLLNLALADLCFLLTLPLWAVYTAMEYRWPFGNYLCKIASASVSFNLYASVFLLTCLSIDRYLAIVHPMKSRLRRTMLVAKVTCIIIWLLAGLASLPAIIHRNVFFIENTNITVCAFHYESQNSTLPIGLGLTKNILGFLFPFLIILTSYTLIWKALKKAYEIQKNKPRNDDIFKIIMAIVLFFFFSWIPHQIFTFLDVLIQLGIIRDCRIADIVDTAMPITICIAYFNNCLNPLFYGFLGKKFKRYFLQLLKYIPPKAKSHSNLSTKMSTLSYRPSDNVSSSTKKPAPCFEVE

[8] = target: T3, Muscarinic acetylcholine receptor M2; type: functional, cell-based; remark: listed apart in the source
Also: assay procedure not described here.

Sequence of Beta-1 adrenergic receptor (P08588 whole entry): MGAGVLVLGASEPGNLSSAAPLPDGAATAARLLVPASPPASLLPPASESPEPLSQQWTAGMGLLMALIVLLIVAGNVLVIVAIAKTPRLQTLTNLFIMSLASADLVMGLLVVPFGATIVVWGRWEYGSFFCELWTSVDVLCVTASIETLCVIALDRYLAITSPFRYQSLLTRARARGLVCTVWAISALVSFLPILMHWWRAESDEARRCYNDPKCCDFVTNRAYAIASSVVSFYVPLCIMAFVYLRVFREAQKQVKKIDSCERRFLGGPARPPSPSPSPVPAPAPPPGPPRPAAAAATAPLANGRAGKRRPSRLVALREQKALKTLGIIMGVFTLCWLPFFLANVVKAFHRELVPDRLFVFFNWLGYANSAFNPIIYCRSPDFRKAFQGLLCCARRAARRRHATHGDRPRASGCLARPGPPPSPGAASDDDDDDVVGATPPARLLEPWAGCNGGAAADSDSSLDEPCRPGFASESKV
Sequence of Delta-type opioid receptor (P41143 whole entry): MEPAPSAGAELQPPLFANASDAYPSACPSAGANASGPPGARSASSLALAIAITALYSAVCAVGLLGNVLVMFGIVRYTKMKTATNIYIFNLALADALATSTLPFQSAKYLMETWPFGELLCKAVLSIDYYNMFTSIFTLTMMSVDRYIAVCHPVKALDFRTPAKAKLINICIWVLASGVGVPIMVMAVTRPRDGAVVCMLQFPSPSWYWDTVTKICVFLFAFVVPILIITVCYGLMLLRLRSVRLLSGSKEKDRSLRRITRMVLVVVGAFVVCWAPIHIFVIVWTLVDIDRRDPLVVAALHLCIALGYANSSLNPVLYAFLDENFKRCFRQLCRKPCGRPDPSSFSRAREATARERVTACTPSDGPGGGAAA
Sequence of 5-hydroxytryptamine receptor 2A (P28223 whole entry): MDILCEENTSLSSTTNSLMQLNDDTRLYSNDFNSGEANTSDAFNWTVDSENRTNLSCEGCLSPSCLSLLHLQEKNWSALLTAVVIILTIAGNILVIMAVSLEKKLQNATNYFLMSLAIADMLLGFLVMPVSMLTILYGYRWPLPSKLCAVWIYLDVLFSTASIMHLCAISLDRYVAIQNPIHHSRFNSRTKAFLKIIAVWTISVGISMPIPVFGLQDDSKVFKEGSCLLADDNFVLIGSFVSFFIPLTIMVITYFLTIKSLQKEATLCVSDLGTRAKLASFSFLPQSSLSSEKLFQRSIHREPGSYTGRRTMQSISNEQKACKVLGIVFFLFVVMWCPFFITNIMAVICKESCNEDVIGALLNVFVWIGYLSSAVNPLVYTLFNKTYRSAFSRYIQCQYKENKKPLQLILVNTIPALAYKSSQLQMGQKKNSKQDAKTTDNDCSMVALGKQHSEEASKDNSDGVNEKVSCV

SMILES	AC50 [1]	AC50 [2]	AC50 [3]	AC50 [4]	AC50 [5]	AC50 [6]	AC50 [7]	AC50 [8]
O=C(O)c1ccc2nc(-c3cc(Cl)cc(Cl)c3)oc2c1	30 µM	> 30 µM	> 30 µM	> 30 µM	> 30 µM	> 30 µM	> 30 µM	> 30 µM
OCC(O)COc1ccc(Cl)cc1 (configuration not stated)	> 30 µM	> 10 µM	> 10 µM	> 10 µM	> 10 µM	> 10 µM	> 10 µM	> 10 µM
C[C@H](N)C(=O)N[C@@H](CCC(N)=O)C(=O)O [ALANYL GLUTAMINE] (H-Ala-Gln-OH)	> 30 µM	> 30 µM	> 30 µM	> 30 µM	> 30 µM	> 30 µM	> 30 µM	> 30 µM
COc1cc(N)cn[n+]1-c1ccccc1 [AMEZINIUM METILSULFATE]	> 30 µM	> 30 µM	> 30 µM	> 30 µM	> 30 µM	> 30 µM	> 30 µM	> 30 µM
COc1ccc(-n2nc(C(N)=O)c3c2C(=O)N(c2ccc(N4CCCCC4=O)cc2)CC3)cc1 [APIXABAN]	> 30 µM	26 µM	> 30 µM	> 30 µM	> 30 µM	> 30 µM	> 30 µM	> 30 µM
CCN(CC)CCCN(c1ccccc1)C1Cc2ccccc2C1 [APRINDINE]	> 30 µM	> 30 µM	> 30 µM	> 30 µM	> 30 µM	> 30 µM	> 30 µM	> 30 µM
C[C@@H](Cc1ccccc1)N(C)Cc1ccccc1 [BENZPHETAMINE]	> 30 µM	> 30 µM	> 10 µM	> 10 µM	> 10 µM	> 10 µM	> 30 µM	> 10 µM
CO/N=C(\C(=O)N[C@@H]1C(=O)N2C(C(=O)O)=C(CSc3nc(C)c(CC(=O)O)s3)CS[C@H]12)c1csc(N)n1 [CEFODIZIME]	> 30 µM	> 30 µM	> 30 µM	> 30 µM	> 30 µM	> 30 µM	> 30 µM	> 30 µM
CO/N=C(\C(=O)N[C@@H]1C(=O)N2C(C(=O)[O-])=C(C[n+]3ccc(N)n3CCO)CS[C@H]12)c1csc(N)n1 [CEFOSELIS]	> 30 µM	> 30 µM	> 30 µM	> 30 µM	> 30 µM	> 30 µM	> 30 µM	> 30 µM
CC(=O)OCC1=C(C(=O)O)N2C(=O)[C@@H](NC(=O)Cc3cccs3)[C@H]2SC1 [CEPHALOTHIN]	> 30 µM	> 30 µM	> 30 µM	> 30 µM	> 30 µM	> 30 µM	> 30 µM	> 30 µM
CC(=O)OCC1=C(C(=O)O)N2C(=O)[C@@H](NC(=O)CSc3ccncc3)[C@H]2SC1 [CEPHAPIRIN]	> 30 µM	> 10 µM	> 30 µM	> 10 µM	> 10 µM	> 10 µM	> 10 µM	> 10 µM
CC1=C(C(=O)O)N2C(=O)[C@@H](NC(=O)[C@H](N)C3=CCC=CC3)[C@H]2SC1 [CEPHRADINE]	> 30 µM	> 30 µM	22 µM	> 30 µM	> 30 µM	> 30 µM	> 30 µM	> 30 µM
COc1ccc(C(Cl)=C(c2ccc(OC)cc2)c2ccc(OC)cc2)cc1 [CHLOROTRIANISENE]	> 30 µM	> 30 µM	> 30 µM	> 30 µM	> 30 µM	> 30 µM	> 30 µM	> 30 µM
CCCO[C@H]1[C@@H]([C@@H](COCc2ccc(Cl)cc2)OCc2ccc(Cl)cc2)OC(OCC)[C@@H]1O (some centres not stated) [CLOBENOSIDE]	> 30 µM	> 30 µM	22 µM	> 30 µM	> 30 µM	> 30 µM	> 30 µM	> 30 µM
Nc1nc(Cl)nc2c1ncn2[C@@H]1O[C@H](CO)[C@@H](O)[C@@H]1F [CLOFARABINE]	> 30 µM	> 30 µM	> 30 µM	> 30 µM	> 30 µM	> 10 µM	> 30 µM	> 10 µM
C=C(c1ccccc1OCc1cccc(Cl)c1)n1ccnc1 [CROCONAZOLE]	> 30 µM	> 30 µM	> 30 µM	> 30 µM	> 30 µM	> 10 µM	> 30 µM	> 10 µM
CN(C)CCOC(=O)C(c1ccccc1)C1(O)CCCC1 (configuration not stated) [CYCLOPENTOLATE]	> 30 µM	> 30 µM	> 10 µM	> 10 µM	> 10 µM	> 10 µM	> 10 µM	0.29 µM
CCCCCCOC(=O)NC(=N)c1ccc(NCc2nc3cc(C(=O)N(CCC(=O)OCC)c4ccccn4)ccc3n2C)cc1 [DABIGATRAN ETEXILATE]	> 30 µM	> 30 µM	> 30 µM	> 30 µM	> 30 µM	> 30 µM	7.7 µM	> 30 µM
COC(=O)[C@H]1[C@H]2C[C@@H]3c4[nH]c5ccccc5c4CCN3C[C@H]2C[C@@H](OC(=O)c2cc(OC)c(OC)c(OC)c2)[C@@H]1OC [DESERPIDINE]	> 30 µM	> 10 µM	> 30 µM	> 10 µM	> 10 µM	> 10 µM	> 10 µM	> 10 µM
CCN1C(=O)NC(c2ccccc2)C1=O (configuration not stated) [ETHOTOIN]	> 30 µM	> 30 µM	> 30 µM	> 30 µM	> 30 µM	> 30 µM	> 30 µM	> 30 µM
CCC(NC(C)C)C(O)c1ccc(O)c(O)c1 (configuration not stated) [ISOETHARINE]	> 30 µM	> 30 µM	> 30 µM		> 30 µM	> 30 µM	> 30 µM	> 30 µM
